Legend:
[1] = test system: TNFα release from LPS-induced RAW 264.7 cells; experiment: Inhibition of LPS-induced TNFα release from RAW 264.7 cells (ELISA); assay type: cell-based; details: RAW 264.7 murine macrophage cells, 1 hour pretreatment, 100 ng/mL LPS, 24 hours
Method: (§1) The present inventors measured the ability of eight test articles to inhibit LPS-induced nitric oxide and TNFα secretion from murine macrophage cells.
(§2) The studies were conducted in RAW 264.7 cultures.
(§3) RAW 264.7 murine macrophage cells (ATCC, TIB-71) were maintained at 5% CO2, 37° C. in RPMI media (Fisher 15-040-CV, 1 mg/L glutathione) with 10% fetal bovine serum (fbs, Fisher, lot 05069F) plus 2 mM L-glutamine and penicillin/streptomycin. The cells were subcultured every two to three days. Cells were plated in tissue culture treated 96 well plates at a density of 1×10^5 cells/well and incubated at 5% CO2, 37° C. for at least one hour prior to initiation of the assay. The cells were washed with RPMI with 10% fbs prior to the initiation of the assay.
The compounds were weighed, dissolved in DMSO for stock solutions of 10 mg/mL and serially diluted in RPMI. The plated RAW 264.7 cells were pretreated in duplicate with the test compounds, control (CNI-1493) or vehicle for 1 hour at final concentrations of 0, 0.1, 1.0, 10, and 100 μg/mL. The cells were stimulated with 100 ng/mL LPS (E. coli 0111:B4) and incubated at 5% CO2, 37° C. for 24 hours. The media was collected and stored at −20° C.

[2] = test system: nitric oxide release from LPS-induced RAW 264.7 cells; experiment: Inhibition of LPS-induced nitric oxide (nitrite) release from RAW 264.7 cells (Griess reagent); assay type: cell-based; details: RAW 264.7 murine macrophage cells, 1 hour pretreatment, 100 ng/mL LPS, 24 hours
Method: as §1, §2, §3
The compounds were weighed, dissolved in DMSO for stock solutions of 10 mg/mL and serially diluted in RPMI. The plated RAW 264.7 cells were pretreated in duplicate with the test compounds, control (CNI-1493) or vehicle for 1 hour at final concentrations of 0, 0.1, 1.0, 10, and 100 μg/mL. […]
To 50 μL of cell-free media, 50 μL of Griess Reagent (1 part 0.1% naphthylethylenediamine diHCl, 1 part 1.32% sulfanilimide in 60% acetic acid) was added and incubated for no more than 5 minutes at ambient temperature. The samples were read on a microtiter plate reader at 540 nm and compared to a 0.1-5 nmol nitrite standard curve.

SMILES: C/C(=N\N=C(N)N)c1cc(NC(=O)CCCCCCCCC(=O)Nc2cc(/C(C)=N/N=C(N)N)cc(/C(C)=N/N=C(N)N)c2)cc(/C(C)=N/N=C(N)N)c1.Cl.Cl.Cl.Cl [CNI-1493]
- IC50 for inhibition of release of TNFα [1]: approximately 8 μg/mL
- IC50 for inhibition of nitric oxide release [2]: approximately 5.5 μg/mL

— US7863334B2, “Guanylhydrazone compounds, compositions, methods of making and using” (Cytokine PharmaSciences, Inc., priority 2004, dated 2011)
